row,melting point [°C],SMILES
1,97 to 101,CC(C)OC(=O)C1CCCN1S(=O)(=O)c1ccc(N2CCC(=O)CC2)cc1 (configuration not stated)
2,282 to 285,Cn1c(N)c(C#N)c(Cl)c1C=O
3,90 to 93,OCc1cc(Cl)cc(Cl)c1Cl
4,117 to 119,CCC1(CCCCN2CCc3sc(Cl)cc3C2)C(=O)Nc2ccccc21 (configuration not stated)
5,250 to 252,N#Cc1ccc2[nH]c(C(=O)C34CC5CC(CC(C5)C3)C4)cc2c1
6,167 to 168,COC(=O)c1ccc(-c2nc(-c3ccccc3)n(C)n2)cc1
7,212 to 213,CC1(C)Oc2ccc(OC(F)(F)F)cc2[C@@H](N2Cc3ccccc3C2=O)[C@@H]1O (relative stereo)
8,140 to 142,O=C(c1ccccc1C(F)(F)F)N1CCCN(CC2=Nc3cccc4c(=O)[nH]nc(c34)N2)CC1
9,126 to 127,COc1c(C)c(C)c(OC)c(C=CC(=O)C(=O)O)c1C
10,128 to 132,NCC(=O)Nc1ccc(Cl)cc1C(=NCCO)c1ccccc1F
11,158,CSc1ccc(-c2nnc(Cl)cc2-c2ccccc2)cc1
12,268 to 272,Cc1cc2nncn2nc1-c1ccc(C(N)=S)cc1
13,183 to 186,Nc1nc2ccccc2c2c1nc(CO)n2CCCCNC(=O)C1CCCC1
14,192 to 194,Cc1cn(-c2cc(NC(=O)c3ccc(C)c(C#Cc4ccc(NC(C)C)nn4)c3)cc(C(F)(F)F)c2)cn1
15,221 to 222,N#Cc1cnc2c(c1)N(Cc1cc(Cl)ccc1Cl)CCN2
16,169 to 170,CCCN(CCC)CCCC1CCN(CCNC(=O)N2c3ccccc3C(=O)Nc3cccnc32)CC1
17,223 to 225,O=C1c2ccccc2C(=O)N1OS(=O)(=O)c1ccc2ccccc2c1
18,127 to 130,CNc1cc(Oc2ccc(NC(=O)Nc3ccc(-c4ccncc4)c(C(F)(F)F)c3)cc2)ncn1
19,98 to 100,CN(C)Cc1csc(N(C)CC#CI)n1
20,222 to 223,Nc1nc2cc(Cl)c(Cl)cc2nc1-c1ccco1
21,> 230,COCc1cc(N)n2nc(SC)c(S(=O)(=O)c3ccccc3)c2n1
22,192 to 196,CCCCN=C(O)c1cc([N+](=O)[O-])cc(Sc2ccccc2C(=O)O)c1C(=O)O
23,196 to 198,CC1(C)C(=O)Oc2ccc3ccc(C(C#N)n4cncn4)cc3c21 (configuration not stated)
24,171 to 173,O=C(Nc1ccc(C(F)(F)F)cc1)N1CCC(c2ccccc2)C(c2ccccc2)=N1 (configuration not stated)
25,180 to 181,Cc1c(C(=O)N[C@H](C)[C@](O)(Cn2cncn2)c2ccc(F)cc2F)cnn1-c1ccc(C(F)(F)F)cc1

row,melting point [°C],SMILES
1,75.4 to 76.2,COc1cccc(C=O)c1OC(C)=O
2,188 to 189,O=S(=O)(Cc1ccccc1)c1nc2ccc(O)cc2s1
3,84 to 86,CCOC(=O)C1=C(C)NC(CSCCOC(C)=O)=C(C(=O)OCC)C1c1cccc([N+](=O)[O-])c1 (configuration not stated)
4,68 to 74,CCCCCCCCCCCCCCCCCCOc1cc(N(CC(=O)OC)CC(=O)OC)cc([N+](=O)[O-])c1
5,107 to 109,Oc1cc(OCc2ccccc2)cc(OCc2ccccc2)c1
6,149 to 150,COc1ccc(-c2cc3c(OC)cc(OC)cc3nc2OCC#N)cc1
7,185,Cc1nc2c(o1)CCc1ccccc1C2=Cc1cccc(NS(C)(=O)=O)c1
8,78 to 79,CCCCN(C(=O)c1cc(C)oc1C)C1CC(C)(C)NC(C)(C)C1
9,50 to 52,CCCOc1ccc2c(c1)C(=O)CCO2
10,140 to 142,Cn1cc2c([C@@H]3C[C@H]3CNC(=O)c3ccc(Br)cc3)cccc2n1
11,189 to 190,CC(C)n1nc(-c2sc(NC(=O)CN3CCCCC3)nc2-c2ccccc2)ccc1=O
12,77 to 79.5,CCC(=O)c1ccc(OC)c(OC(=O)CCl)c1
13,141 to 143,COc1ccc(S(=O)(=O)N2c3cc(F)ccc3-c3ccc(F)cc3C2C)cc1 (configuration not stated)
14,161 to 162,CCCOc1cc(C(=O)O)cc(N)c1Cc1ccccc1
15,67,CCCC(CCC)(CCC)C(=O)O
16,190 to 195,O=C(C=Cc1cccc(O)c1)C=Cc1cccc(O)c1
17,110,CC(=O)Nc1ccc(OCCOCCOc2ncc(Cl)cn2)cc1
18,105 to 106,CC(C)n1cnc2c(Nc3ccncc3)nc(F)nc21
19,170 to 171,CN(C(=O)Cc1ccccc1)c1nn(C)c(-c2ccc(F)cc2)c1-c1ccncc1
20,120 to 121,O=C(O)[C@H](Cc1ccc(F)cc1)[C@@H](O)c1ccc(C(F)(F)F)cc1 (racemic)
21,95 to 96,CC(C)c1ccc2nc3ccc(C(=O)OCCCCc4cccnc4)cn3c(=O)c2c1
22,193 to 196,N=C(Nc1ccc2c(c1)C1CCCN1CC2)c1cccs1 (configuration not stated)
23,117,CCC(=O)c1cc(-c2cccc(OCc3ccc(COC(=O)c4ccccc4)c(COC(=O)c4ccccc4)c3)c2)cs1
24,77 to 78,O=C(O)CCCCCOc1ccccc1OCc1ccccc1
25,57 to 59,CCOC(=O)COc1c(CO)c(C(F)(F)F)nn1C

row,melting point [°C],SMILES
1,87 to 88,Cc1cc(C)c2c(c1C)OCC2c1ccc(C=O)cc1 (configuration not stated)
2,> 250,CCn1nc(-c2nc(C(=O)O)c(NCc3ccc(OC)cc3)nc2-c2ccccc2)ccc1=O
3,130 to 134,CCCCCCC(C(=O)O)n1cnc2c(NC(=O)c3ccccc3-c3nn[nH]n3)cccc21 (configuration not stated)
4,161 to 163,O=C(CCCN1CCC2(CC(O)c3c(Cl)cccc32)C1)c1ccc(F)cc1 (configuration not stated)
5,160 to 162,CCOC(=O)CCn1c(C(=O)NC(N)=S)cc2ccccc21
6,64.8 to 65.7,CCCCOC(=O)Oc1ccc(-c2ccc(C#N)cc2)cc1
7,119 to 120,Cc1cc2c(cc1C)N(C)c1cscc1C(=O)N2CCN(C)C
8,89 to 91,CSc1ccc(C(=CN(C)C)C(C)=O)cc1
9,94 to 95,CC(C)n1nc(C#Cc2cccc(Cl)c2)ccc1=O
10,174 to 176,Cc1cc(Nc2ccc(O)cc2)c2[nH]ncc2n1
11,114 to 115,CC1CC(C)CN(C(=O)c2ccc(Cl)cc2)C1 (configuration not stated)
12,79 to 81,CC1(C)C(c2ccc(S(C)(=O)=O)cc2)=C(c2ccccc2)C1O (configuration not stated)
13,223 to 225,COc1cc2c(Nc3cc(O)c(Cl)cc3F)c(C#N)cnc2c(OC)c1OC
14,310 to 312,CC1(C)C(=O)Nc2cc3[nH]c(-c4cncnc4)nc3cc21
15,147 to 149,O=C(CCCCCCOc1ccc(-c2ccccc2)cc1)NO
16,150 to 155,COc1c(C)cc(N)c(CS(=O)c2nc3ccccc3[nH]2)c1C (configuration not stated)
17,190 to 191,O=C(CCl)c1ccc2c(c1)Nc1ccccc1S2
18,89 to 91,NC(=O)N(O)Cc1cccc(OCc2coc(-c3ccc(F)cc3)n2)c1
19,140 to 141,CCOc1ccc(-n2c(NCc3ccc(Br)cc3)nc3ccc(Cl)cc32)cc1
20,152,O=C1C2=C(SCCO2)C(=O)N1c1ccc(Cl)cn1
21,106 to 108,COc1ccccc1CN(CC(=O)OC(C)(C)C)S(=O)(=O)c1ccc2c(Cl)cnc(Cl)c2c1
22,87 to 90,CC(C)N1CCN(c2ccc([N+](=O)[O-])cc2)C(=O)C1
23,176 to 180,Cc1c(CO)ncn1Cc1ccccc1
24,134,CCCC(=O)Nc1c(Br)cc(C(=O)OCC)cc1CN(CC)CC
25,201 to 203,CC1=NCC(=S)Nc2ccc(Cl)cc21

row,melting point [°C],SMILES
1,256 to 258,COc1ccc(C(=O)NNC(=O)c2ccc([N+](=O)[O-])cc2)cc1
2,78 to 95,OCCNCCNCc1ccc(-c2cc3ncnc(Nc4ccc5[nH]ccc5c4)c3s2)cc1
3,67,Oc1ccc(OCc2ccccc2)cc1F
4,114 to 115,COc1nc2ccccc2cc1N(C(=O)N1CCN(c2cc(C)cc(C)c2)CC1)C(C)C
5,112 to 119,CC(C(=O)O)c1ccc(-c2ccccc2)c(O)c1 (configuration not stated)
6,107 to 111,CC(=O)Oc1cc(S(=O)(=O)c2ccccc2)ccc1OCc1ccccc1
7,225 to 227,CCOCc1nc2c(N)nc3cc(OCc4ccccc4)ccc3c2n1CCCCN1CCCS1(=O)=O
8,91 to 92,CC(C)C(CN=C(O)C(Cl)=C(Cl)C(=O)O)c1ccc(Cl)cc1 (configuration not stated)
9,258 to 263,COc1ccc(-c2ccc3cc(C(=O)O)ccc3c2)cc1C12CC3CC(C)(CC(C)(C3)C1)C2
10,52,CCCCCOc1ccc(C(=O)OC(C)C(C)OC(=O)c2ccc(OCCCCC)cc2)cc1 (configuration not stated)
11,162 to 163,COc1cc(Cc2cnc(NC(=O)C(C)(C)C)nc2NC(=O)C(C)(C)C)c(C=O)c(OC)c1OC
12,56 to 57,COc1c(C)cnc(C(Br)C#N)c1C (configuration not stated)
13,229 to 231,Cn1cc(C2=CC(=O)NC2=O)c2ccccc21
14,152,COC(=O)c1ccc(CBr)c(SC(=O)c2ccc(C(C)(C)C)cc2)c1
15,92 to 93,COC(=O)c1ccc(OCCOc2ccccc2)cc1
16,220 to 221,Cn1nnnc1-c1cn(C)c2cc(C(F)(F)F)ccc2c1=O
17,144 to 145,COc1c2c(cc3ccncc13)OCO2
18,100 to 102,COc1ccc(C(C)N(C)CCCOc2ccc(S(=O)(=O)C3=C(C(C)C)N(C)CC3)cc2)cc1OC (configuration not stated)
19,170 to 173,Cc1ccc2sc3cc(C(C)(C)[N+](=O)[O-])ccc3c(=O)c2c1
20,291,COc1ccccc1Sc1c(O)nc[nH]c1=O
21,122,C(=Nc1ncc[nH]1)c1ccccc1
22,245 to 247,C#Cc1cccc(Nc2ncnc3[nH]cc(-c4ccc(C)cc4)c23)c1
23,229 to 231,N#Cc1ccc2c(c1)S(=O)(=O)c1ccccc1C=C2
24,206 to 208,Nc1nc(N)c2nc(N)n(COC(CO)CO)c2n1

row,SMILES,melting point [°C]
1,C=CCN1C2CCC1C1CCC2N1C(c1ccc(C(=O)N(CC)CC)cc1)c1cccc(OC)c1 (configuration not stated),99 to 101
2,CCCCCCc1cc2c(s1)-n1c(C)nnc1CN=C2c1cc(C)ccc1C,81 to 84
3,O=C1NCN(c2ccc(F)cc2)C12CCN(CCCN(c1ccc(F)cc1)c1ccc(F)cc1)CC2,162 to 163
